Test results taken from the supplement of paper PMC5662764.
± gives the standard deviation of the averaged measurements.

Key:
Test in all cases: normalised growth rate inhibition (GR value) relative to DMSO control (GR (1 = untreated growth, 0 = cytostasis, <0 = cytotoxic)); higher = less growth inhibition
Settings in all cases: 72 h
BT20 = system: BT20
Procedure: (§1)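 Breast cancer cell lines (BT-20, Hs 578T, MCF 10A, MCF7, MDA-MB-231, SK-BR-3) were plated in 384-well plates and treated 24 h later with drugs at six concentrations (0.04-10 µM). Viable cells were counted by Hoechst/dead-cell-stain imaging at 0 and 72 h. Counts were normalised to DMSO controls on the same plate to give the relative cell count and the growth-rate inhibition (GR) value; technical plate triplicates were averaged for each biological replicate.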

HS578T = system: HS578T
Procedure: as §1

MCF10A = system: MCF10A
Procedure: as §1

MCF7 = system: MCF7
Procedure: as §1

MDAMB231 = system: MDAMB231
Procedure: as §1

SKBR3 = system: SKBR3
Procedure: as §1

Compound | normalised growth rate inhibition (BT20; 0.04 µM) | normalised growth rate inhibition (BT20; 0.12 µM) | normalised growth rate inhibition (BT20; 0.37 µM) | normalised growth rate inhibition (BT20; 1.11 µM) | normalised growth rate inhibition (BT20; 3.33 µM) | normalised growth rate inhibition (BT20; 10 µM) | normalised growth rate inhibition (HS578T; 0.04 µM) | normalised growth rate inhibition (HS578T; 0.12 µM) | normalised growth rate inhibition (HS578T; 0.37 µM) | normalised growth rate inhibition (HS578T; 1.11 µM) | normalised growth rate inhibition (HS578T; 3.33 µM) | normalised growth rate inhibition (HS578T; 10 µM) | normalised growth rate inhibition (MCF10A; 0.04 µM) | normalised growth rate inhibition (MCF10A; 0.12 µM) | normalised growth rate inhibition (MCF10A; 0.37 µM) | normalised growth rate inhibition (MCF10A; 1.11 µM) | normalised growth rate inhibition (MCF10A; 3.33 µM) | normalised growth rate inhibition (MCF10A; 10 µM) | normalised growth rate inhibition (MCF7; 0.04 µM) | normalised growth rate inhibition (MCF7; 0.12 µM) | normalised growth rate inhibition (MCF7; 0.37 µM) | normalised growth rate inhibition (MCF7; 1.11 µM) | normalised growth rate inhibition (MCF7; 3.33 µM) | normalised growth rate inhibition (MCF7; 10 µM) | normalised growth rate inhibition (MDAMB231; 0.04 µM) | normalised growth rate inhibition (MDAMB231; 0.12 µM) | normalised growth rate inhibition (MDAMB231; 0.37 µM) | normalised growth rate inhibition (MDAMB231; 1.11 µM) | normalised growth rate inhibition (MDAMB231; 3.33 µM) | normalised growth rate inhibition (MDAMB231; 10 µM) | normalised growth rate inhibition (SKBR3; 0.04 µM) | normalised growth rate inhibition (SKBR3; 0.12 µM) | normalised growth rate inhibition (SKBR3; 0.37 µM) | normalised growth rate inhibition (SKBR3; 1.11 µM) | normalised growth rate inhibition (SKBR3; 3.33 µM) | normalised growth rate inhibition (SKBR3; 10 µM)
CCOc1cc2ncc(C#N)c(Nc3ccc(OCc4ccccn4)c(Cl)c3)c2cc1NC(=O)/C=C/CN(C)C [neratinib] | 0.724 ± 0.042 | 0.669 ± 0.069 | 0.617 ± 0.11 | 0.528 ± 0.11 | 0.41 ± 0.12 | 0.301 ± 0.13 | 0.887 ± 0.0023 | 0.81 ± 0.0089 | 0.649 ± 0.085 | 0.485 ± 0.22 | 0.274 ± 0.24 | 0.0282 ± 0.1 | 0.441 ± 0.24 | 0.314 ± 0.19 | 0.191 ± 0.11 | 0.168 ± 0.098 | 0.131 ± 0.058 | 0.122 ± 0.054 | 0.722 ± 0.12 | 0.663 ± 0.081 | 0.585 ± 0.042 | 0.419 ± 0.23 | 0.299 ± 0.21 | 0.0822 ± 0.12 | 0.907 ± 0.13 | 0.868 ± 0.15 | 0.728 ± 0.12 | 0.581 ± 0.23 | 0.387 ± 0.29 | 0.0691 ± 0.39 | -0.108 ± 0.19 | -0.114 ± 0.2 | -0.14 ± 0.19 | -0.118 ± 0.22 | -0.152 ± 0.22 | -0.215 ± 0.19
Cc1cn(-c2cc(NC(=O)c3ccc(C)c(Nc4nccc(-c5cccnc5)n4)c3)cc(C(F)(F)F)c2)cn1 [nilotinib] | 1 ± 0.043 | 1.01 ± 0.044 | 1.02 ± 0.039 | 0.996 ± 0.043 | 1 ± 0.039 | 0.0181 ± 0.099 | 1.09 ± 0.056 | 1.1 ± 0.072 | 1.09 ± 0.078 | 1.07 ± 0.06 | 1.07 ± 0.093 | 0.028 ± 0.096 | 1 ± 0.036 | 0.991 ± 0.035 | 0.978 ± 0.029 | 0.992 ± 0.044 | 0.982 ± 0.035 | 0.507 ± 0.14 | 1.03 ± 0.021 | 1.04 ± 0.038 | 0.971 ± 0.021 | 0.958 ± 0.014 | 0.956 ± 0.059 | 0.0407 ± 0.15 | 0.943 ± 0.038 | 0.914 ± 0.099 | 0.863 ± 0.1 | 0.805 ± 0.14 | 0.818 ± 0.13 | 0.00998 ± 0.16 | 1.1 ± 0.074 | 1.11 ± 0.043 | 1.15 ± 0.029 | 1.11 ± 0.052 | 1.08 ± 0.068 | 0.208 ± 0.097
COC(=O)c1ccc2c(C(=Nc3ccc(N(C)C(=O)CN4CCN(C)CC4)cc3)c3ccccc3)c(O)[nH]c2c1 [nintedanib] | 1.03 ± 0.056 | 1.01 ± 0.088 | 0.857 ± 0.14 | 0.843 ± 0.089 | 0.692 ± 0.079 | 0.508 ± 0.12 | 0.922 ± 0.029 | 0.872 ± 0.043 | 0.727 ± 0.053 | 0.585 ± 0.14 | 0.386 ± 0.12 | 0.0955 ± 0.12 | 1.012 ± 0.0058 | 0.9933 ± 0.0087 | 0.9918 ± 0.0074 | 0.99 ± 0.014 | 0.918 ± 0.069 | 0.967 ± 0.029 | 0.999 ± 0.043 | 0.892 ± 0.073 | 0.748 ± 0.12 | 0.545 ± 0.15 | 0.326 ± 0.2 | 0.038 ± 0.22 | 1.08 ± 0.029 | 1.04 ± 0.022 | 0.9908 ± 0.0092 | 0.929 ± 0.067 | 0.842 ± 0.14 | 0.214 ± 0.56 | 1.09 ± 0.024 | 1.02 ± 0.051 | 0.947 ± 0.028 | 0.835 ± 0.022 | 0.645 ± 0.095 | 0.0487 ± 0.37
CC(=O)c1c(C)c2cnc(Nc3ccc(N4CCNCC4)cn3)nc2n(C2CCCC2)c1=O [palbociclib] | 0.654 ± 0.069 | 0.53 ± 0.14 | 0.412 ± 0.13 | 0.295 ± 0.082 | 0.273 ± 0.066 | 0.196 ± 0.033 | 0.68 ± 0.03 | 0.569 ± 0.024 | 0.485 ± 0.044 | 0.411 ± 0.032 | 0.397 ± 0.019 | 0.327 ± 0.018 | 0.839 ± 0.037 | 0.743 ± 0.052 | 0.666 ± 0.048 | 0.581 ± 0.038 | 0.534 ± 0.019 | 0.408 ± 0.051 | 0.696 ± 0.09 | 0.552 ± 0.13 | 0.447 ± 0.15 | 0.356 ± 0.13 | 0.32 ± 0.055 | 0.294 ± 0.024 | 0.675 ± 0.092 | 0.579 ± 0.077 | 0.477 ± 0.075 | 0.407 ± 0.043 | 0.35 ± 0.027 | 0.278 ± 0.039 | 0.819 ± 0.12 | 0.683 ± 0.037 | 0.612 ± 0.05 | 0.595 ± 0.038 | 0.568 ± 0.049 | 0.517 ± 0.046
